Results: the supplement of paper PMC10307832

Columns and labels:
Experiment in all cases: relative viability (nuclei count vs DMSO), 5 days (fraction); higher = more cells survive
NCI-H2085 = test system: NCI-H2085
Outline: (§1)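 Values are medians from duplicate plates. Each reflects relative viability, defined as the nuclei count of treated wells over that of vehicle wells. Lung cancer cell lines in 1536-well plates were pin-tool dosed one day after seeding with one drug alone or with a fixed anchor-drug dose plus five library-drug doses (not always all listed) in √10 steps, then fixed, stained and imaged at 4× after 5 days.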

NCI-H647 = test system: NCI-H647
Outline: as §1

NCI-H358 = test system: NCI-H358
Outline: as §1

NCI-H2342 = test system: NCI-H2342
Outline: as §1

LXF-289 = test system: LXF-289
Outline: as §1

NCI-H1650 = test system: NCI-H1650
Outline: as §1

NCI-H322M = test system: NCI-H322M
Outline: as §1

NCI-H727 = test system: NCI-H727
Outline: as §1

NCI-H2023 = test system: NCI-H2023
Outline: as §1

SW 1573 = test system: SW 1573
Outline: as §1

NCI-H1915 = test system: NCI-H1915
Outline: as §1

NCI-H2347 = test system: NCI-H2347
Outline: as §1

NCI-H661 = test system: NCI-H661
Outline: as §1

LCLC-97TM1 = test system: LCLC-97TM1
Outline: as §1

NCI-H2009 = test system: NCI-H2009
Outline: as §1

NCI-H1563 = test system: NCI-H1563
Outline: as §1

NCI-H2126 = test system: NCI-H2126
Outline: as §1

SK-LU-1 = test system: SK-LU-1
Outline: as §1

EMC-BAC-2 = test system: EMC-BAC-2
Outline: as §1

HOP-62 = test system: HOP-62
Outline: as §1

BEN = test system: BEN
Outline: as §1

PC-14 = test system: PC-14
Outline: as §1

NCI-H1993 = test system: NCI-H1993
Outline: as §1

H3255 = test system: H3255
Outline: as §1

SMILES: COc1cc(N2CCC(C(N)=O)CC2)ccc1Nc1nc(N)c(Cl)c(Nc2ccccc2S(=O)(=O)C(C)C)n1 [HG-5-88-01] + CCNC(=O)c1noc(-c2cc(C(C)C)c(O)cc2O)c1-c1ccc(CN2CCOCC2)cc1 [Luminespib] (partner 0.01 µM)
- relative viability (NCI-H2085; first compound 0.04 µM): 0.405
- relative viability (NCI-H2085; first compound 0.1265 µM): 0.453
- relative viability (NCI-H2085; first compound 0.4 µM): 0.407
- relative viability (NCI-H2085; first compound 1.265 µM): 0.434
- relative viability (NCI-H2085; first compound 4 µM): 0.464
- relative viability (NCI-H647; first compound 0.04 µM): 0.25
- relative viability (NCI-H647; first compound 0.1265 µM): 0.363
- relative viability (NCI-H647; first compound 0.4 µM): 0.13
- relative viability (NCI-H647; first compound 1.265 µM): 0.148
- relative viability (NCI-H647; first compound 4 µM): 0.248
- relative viability (NCI-H358; first compound 0.04 µM): 0.335
- relative viability (NCI-H358; first compound 0.1265 µM): 0.256
- relative viability (NCI-H358; first compound 0.4 µM): 0.422
- relative viability (NCI-H358; first compound 1.265 µM): 0.099
- relative viability (NCI-H358; first compound 4 µM): 0.148
- relative viability (NCI-H2342; first compound 0.04 µM): 0.672
- relative viability (NCI-H2342; first compound 0.1265 µM): 0.739
- relative viability (NCI-H2342; first compound 0.4 µM): 0.688
- relative viability (NCI-H2342; first compound 1.265 µM): 0.701
- relative viability (NCI-H2342; first compound 4 µM): 0.845
- relative viability (LXF-289; first compound 0.04 µM): 0.703
- relative viability (LXF-289; first compound 0.1265 µM): 0.733
- relative viability (LXF-289; first compound 0.4 µM): 0.698
- relative viability (LXF-289; first compound 1.265 µM): 0.721
- relative viability (LXF-289; first compound 4 µM): 0.897
- relative viability (NCI-H1650; first compound 0.04 µM): 0.156
- relative viability (NCI-H1650; first compound 0.1265 µM): 0.184
- relative viability (NCI-H1650; first compound 0.4 µM): 0.172
- relative viability (NCI-H1650; first compound 1.265 µM): 0.197
- relative viability (NCI-H1650; first compound 4 µM): 0.204
- relative viability (NCI-H322M; first compound 0.04 µM): 0.782
- relative viability (NCI-H322M; first compound 0.1265 µM): 0.835
- relative viability (NCI-H322M; first compound 0.4 µM): 0.555
- relative viability (NCI-H322M; first compound 4 µM): 0.627
- relative viability (NCI-H727; first compound 0.04 µM): 0.566
- relative viability (NCI-H727; first compound 0.1265 µM): 0.344
- relative viability (NCI-H727; first compound 0.4 µM): 0.337
- relative viability (NCI-H727; first compound 1.265 µM): 0.313
- relative viability (NCI-H727; first compound 4 µM): 0.31
- relative viability (NCI-H2023; first compound 0.04 µM): 0.397
- relative viability (NCI-H2023; first compound 0.1265 µM): 0.673
- relative viability (NCI-H2023; first compound 0.4 µM): 0.671
- relative viability (NCI-H2023; first compound 1.265 µM): 0.438
- relative viability (NCI-H2023; first compound 4 µM): 0.267
- relative viability (SW 1573; first compound 0.04 µM): 0.261
- relative viability (SW 1573; first compound 0.1265 µM): 0.213
- relative viability (SW 1573; first compound 0.4 µM): 0.194
- relative viability (SW 1573; first compound 1.265 µM): 0.205
- relative viability (SW 1573; first compound 4 µM): 0.242
- relative viability (NCI-H1915; first compound 0.04 µM): 0.774
- relative viability (NCI-H1915; first compound 0.1265 µM): 0.755
- relative viability (NCI-H1915; first compound 0.4 µM): 0.792
- relative viability (NCI-H1915; first compound 1.265 µM): 1.01
- relative viability (NCI-H1915; first compound 4 µM): 0.786
- relative viability (NCI-H2347; first compound 0.04 µM): 0.282
- relative viability (NCI-H2347; first compound 0.1265 µM): 0.467
- relative viability (NCI-H2347; first compound 0.4 µM): 0.32
- relative viability (NCI-H2347; first compound 1.265 µM): 0.398
- relative viability (NCI-H2347; first compound 4 µM): 0.339
- relative viability (NCI-H661; first compound 0.04 µM): 0.938
- relative viability (NCI-H661; first compound 0.1265 µM): 0.964
- relative viability (NCI-H661; first compound 0.4 µM): 1.04
- relative viability (NCI-H661; first compound 1.265 µM): 1.03
- relative viability (NCI-H661; first compound 4 µM): 0.951
- relative viability (LCLC-97TM1; first compound 0.04 µM): 0.864
- relative viability (LCLC-97TM1; first compound 0.1265 µM): 0.647
- relative viability (LCLC-97TM1; first compound 0.4 µM): 0.713
- relative viability (LCLC-97TM1; first compound 1.265 µM): 0.511
- relative viability (LCLC-97TM1; first compound 4 µM): 0.301
- relative viability (NCI-H2009; first compound 0.04 µM): 1.11
- relative viability (NCI-H2009; first compound 0.1265 µM): 1.06
- relative viability (NCI-H2009; first compound 0.4 µM): 0.954
- relative viability (NCI-H2009; first compound 1.265 µM): 0.994
- relative viability (NCI-H2009; first compound 4 µM): 1.12
- relative viability (NCI-H1563; first compound 0.04 µM): 0.542
- relative viability (NCI-H1563; first compound 0.1265 µM): 0.539
- relative viability (NCI-H1563; first compound 0.4 µM): 0.476
- relative viability (NCI-H1563; first compound 1.265 µM): 0.485
- relative viability (NCI-H1563; first compound 4 µM): 0.519
- relative viability (NCI-H2126; first compound 0.04 µM): 0.836
- relative viability (NCI-H2126; first compound 0.1265 µM): 0.975
- relative viability (NCI-H2126; first compound 0.4 µM): 0.861
- relative viability (NCI-H2126; first compound 1.265 µM): 0.699
- relative viability (NCI-H2126; first compound 4 µM): 0.57
- relative viability (SK-LU-1; first compound 0.04 µM): 0.209
- relative viability (SK-LU-1; first compound 0.1265 µM): 0.2
- relative viability (SK-LU-1; first compound 0.4 µM): 0.196
- relative viability (SK-LU-1; first compound 1.265 µM): 0.229
- relative viability (SK-LU-1; first compound 4 µM): 0.199
- relative viability (EMC-BAC-2; first compound 0.04 µM): 1.09
- relative viability (EMC-BAC-2; first compound 0.1265 µM): 1.25
- relative viability (EMC-BAC-2; first compound 0.4 µM): 1.14
- relative viability (EMC-BAC-2; first compound 1.265 µM): 1.12
- relative viability (EMC-BAC-2; first compound 4 µM): 0.892
- relative viability (HOP-62; first compound 0.04 µM): 0.889
- relative viability (HOP-62; first compound 0.1265 µM): 0.932
- relative viability (HOP-62; first compound 0.4 µM): 0.878
- relative viability (HOP-62; first compound 1.265 µM): 0.964
- relative viability (HOP-62; first compound 4 µM): 1.01
- relative viability (BEN; first compound 0.04 µM): 0.337
- relative viability (BEN; first compound 0.1265 µM): 0.412
- relative viability (BEN; first compound 0.4 µM): 0.43
- relative viability (BEN; first compound 1.265 µM): 0.465
- relative viability (BEN; first compound 4 µM): 0.234
- relative viability (PC-14; first compound 0.04 µM): 0.173
- relative viability (PC-14; first compound 0.1265 µM): 0.209
- relative viability (PC-14; first compound 0.4 µM): 0.181
- relative viability (PC-14; first compound 1.265 µM): 0.131
- relative viability (PC-14; first compound 4 µM): 0.194
- relative viability (NCI-H1993; first compound 0.04 µM): 0.957
- relative viability (NCI-H1993; first compound 0.1265 µM): 0.826
- relative viability (NCI-H1993; first compound 0.4 µM): 0.83
- relative viability (NCI-H1993; first compound 1.265 µM): 0.648
- relative viability (NCI-H1993; first compound 4 µM): 0.578
- relative viability (H3255; first compound 0.04 µM): 0.752
- relative viability (H3255; first compound 0.1265 µM): 0.913
- relative viability (H3255; first compound 0.4 µM): 0.818
- relative viability (H3255; first compound 4 µM): 0.847
